# Test results reported in ChEMBL document CHEMBL1201862, “PubChem BioAssay data set” (2004).
# The source made the active and inactive calls. For most assays here, no stated cut-off is given here; in the data, actives have a measured EC50 and inactives only a lower limit.
# Key:
# [1] = system: Streptococcus sp. 'group A'; assay: Streptococcus pyogenes SK(-)GAS viability under kanamycin – luminescence, BacTiterGlo, confirmation, counter-screen for streptokinase expression inhibitor project, dose response (AID 1900); assay type: functional, organism-based
# Streptokinase A = biological target: T1, Streptokinase A (Streptococcus pyogenes serotype M1, UniProt P10520); assay: viability-normalized secreted streptokinase activity reduction – plasminogen activation absorbance, OD405, dose response (AID 1914); assay type: functional, Streptococcus pyogenes M1 GAS;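 further: secreted streptokinase activity via plasminogen activation per viability signal from cell pellet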
# T1 sequence (P10520 whole entry): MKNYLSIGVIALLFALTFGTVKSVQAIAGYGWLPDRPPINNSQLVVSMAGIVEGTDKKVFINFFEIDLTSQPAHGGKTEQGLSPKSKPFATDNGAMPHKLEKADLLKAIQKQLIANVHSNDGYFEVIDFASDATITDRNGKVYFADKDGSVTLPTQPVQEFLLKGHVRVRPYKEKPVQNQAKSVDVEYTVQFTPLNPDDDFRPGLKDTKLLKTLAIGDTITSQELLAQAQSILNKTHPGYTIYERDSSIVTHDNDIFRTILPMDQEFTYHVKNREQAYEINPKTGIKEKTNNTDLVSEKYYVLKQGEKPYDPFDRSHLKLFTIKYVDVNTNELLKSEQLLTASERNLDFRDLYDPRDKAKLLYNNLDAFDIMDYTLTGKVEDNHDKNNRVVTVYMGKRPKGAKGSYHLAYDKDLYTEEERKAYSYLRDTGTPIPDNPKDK
# Streptococcus = assay: GAS UMAA2166 growth inhibition – luminescence, BacTiterGlo, counter-screen for streptokinase expression inhibitor project, dose response (AID 1915); assay type: functional, organism-based;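 further: potency for reduction of bacterial viability or growth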
# [2] = biological target: T2, Corticotropin-releasing factor receptor 2/Corticotropin-releasing factor-binding protein (Homo sapiens, UniProt P24387+Q13324); assay: Dose Response confirmation of uHTS hits for small molecule antagonists of the CRF-binding protein and CRF-R2 receptor complex.; assay type: functional; settings: read-out: IC50_Mean
# T2 sequence (Q13324 whole entry): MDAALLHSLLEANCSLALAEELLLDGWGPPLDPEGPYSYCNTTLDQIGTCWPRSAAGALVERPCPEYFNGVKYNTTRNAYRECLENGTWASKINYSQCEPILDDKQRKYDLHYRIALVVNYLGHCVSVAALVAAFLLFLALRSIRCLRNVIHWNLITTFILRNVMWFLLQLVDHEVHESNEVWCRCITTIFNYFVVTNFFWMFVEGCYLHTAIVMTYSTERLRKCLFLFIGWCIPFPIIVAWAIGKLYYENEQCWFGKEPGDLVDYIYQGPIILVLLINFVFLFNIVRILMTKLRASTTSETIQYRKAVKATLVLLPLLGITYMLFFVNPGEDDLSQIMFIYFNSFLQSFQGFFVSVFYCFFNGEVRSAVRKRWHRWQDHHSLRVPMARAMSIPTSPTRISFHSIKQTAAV
# T2 sequence (P24387 whole entry): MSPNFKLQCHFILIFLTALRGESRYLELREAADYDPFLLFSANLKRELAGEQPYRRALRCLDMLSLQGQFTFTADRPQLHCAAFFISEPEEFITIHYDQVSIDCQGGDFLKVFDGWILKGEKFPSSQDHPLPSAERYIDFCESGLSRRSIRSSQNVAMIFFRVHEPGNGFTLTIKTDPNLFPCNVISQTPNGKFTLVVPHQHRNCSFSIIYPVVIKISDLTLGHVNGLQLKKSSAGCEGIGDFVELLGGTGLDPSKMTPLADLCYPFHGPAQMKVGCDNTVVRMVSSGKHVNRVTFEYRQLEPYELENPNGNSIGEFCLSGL
# [3] = biological target: T2, Corticotropin-releasing factor receptor 2/Corticotropin-releasing factor-binding protein; assay: activators of CRF receptor 2 with binding protein – uHTS hits, confirmation (AID 602473); assay type: functional; settings: read-out: EC50_Mean
# Cytochrome P450 3A4 = Cytochrome P450 3A4 (Homo sapiens, UniProt P08684);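 further: CYP3A4 tested as one member of a cytochrome P450 panel screen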
# [4] = luciferase reporter signal suppression in cells – H4 neuroglioma cells, luminescence, dose response (AID 1990); assay type: functional, cell-based
# [5] = Luminescence Cell-Based Dose Response HTS to Identify Inhibitors of 5'UTR Stem-Loop Driven Prion Protein mRNA Translation in H4 Neuroglioblastoma Cells. [Related pubchem assays: 1827 (Project Summary), 1813 (Primary HTS)]; assay type: functional
# [6] = alpha-synuclein stem-loop luciferase translation blockers – H4 neuroglioma cells, luminescence, confirmation (AID 1988); assay type: functional, cell-based
# INS1 = assay: INS-1E survival protection against cytokine death – cell-based, luminescence, retest, dose response (AID 449756); assay type: functional; settings: Rattus norvegicus, INS1;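 further: cell death triggered by IL-1 beta plus TNF-alpha plus IFN-gamma mixture; protective hits raise ATP signal compared with cytokine alone wells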
# [7] = Trypanosoma cruzi growth suppression in host cells – NIH3T3 host cells, beta-gal luminescence, confirmation (AID 2044); assay type: functional, cell-based;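 further: intracellular parasites grown in NIH/3T3 mouse fibroblasts as host cells; luminescent beta-galactosidase reporter signal from transgenic T. cruzi replicating inside host cells; inhibitors lower the luminescence signal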
# [8] = NIH3T3 cell viability loss – ATP luminescence, mouse fibroblasts, counter-screen, dose response (AID 2010); assay type: functional, cell-based;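 further: cells exposed to compound for about 90 hours before reading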
# Chain of Cytochrome P450 3A4 (P08684 whole entry): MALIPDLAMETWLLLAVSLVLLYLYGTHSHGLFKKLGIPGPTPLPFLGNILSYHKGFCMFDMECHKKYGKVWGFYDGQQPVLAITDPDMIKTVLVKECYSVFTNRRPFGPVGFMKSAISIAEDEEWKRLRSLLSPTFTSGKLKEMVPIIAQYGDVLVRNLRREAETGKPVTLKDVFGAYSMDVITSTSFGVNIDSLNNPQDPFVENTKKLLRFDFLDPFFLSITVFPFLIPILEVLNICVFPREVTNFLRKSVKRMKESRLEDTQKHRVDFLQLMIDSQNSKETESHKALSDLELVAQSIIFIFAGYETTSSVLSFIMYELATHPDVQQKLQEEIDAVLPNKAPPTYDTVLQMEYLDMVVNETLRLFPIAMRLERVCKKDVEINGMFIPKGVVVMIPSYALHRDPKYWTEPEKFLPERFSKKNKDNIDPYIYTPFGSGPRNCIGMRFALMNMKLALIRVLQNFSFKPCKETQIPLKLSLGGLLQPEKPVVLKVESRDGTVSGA
smiles,measurement,setting,value
Cc1cc(C(=O)NCC(=O)OC(C(=O)Nc2cc(C(F)(F)F)ccc2Cl)c2ccccc2)ccc1[N+](=O)[O-] (stereo not drawn),EC50,[1],> 150 µM (not active)
same,EC50,Streptokinase A,> 150 µM (not active)
same,EC50,Streptococcus,> 150 µM (not active)
O=C(c1ccc2snnc2c1)N1CCN(c2ccccn2)CC1,IC50,[2],> 47.1 µM (inactive)
same,EC50,[3],> 53 µM (inactive)
O=C(Oc1ccccc1)N1CCC2(CC1)CN(c1ccncc1)C2,AC50,Cytochrome P450 3A4,15.8 µM (inconclusive)
COc1ccccc1N1CCN(C(=O)/C=C/c2cccs2)CC1,IC50,[2],> 47.1 µM (inactive)
same,EC50,[3],> 53 µM (inactive)
C[C@@H]1O[C@@H]2C3=C(C(=O)[C@H]4O[C@@H]4[C@H]3O)C1[C@@H]1[C@@H](C)OC=C3[C@H](O)[C@H]4O[C@@H]4/C(=N\OCc4ccccc4)[C@@]321,AC50,Cytochrome P450 3A4,6.31 µM (inconclusive)
CCCCN(Cc1cc2cc(OC)ccc2nc1O)S(=O)(=O)c1ccc(C)cc1,EC50,[4],16 µM (active)
same,EC50,[5],11.3 µM (active)
same,EC50,[6],11.1 µM (active)
CCOC(=O)c1cccc(NC(=O)/C=C/c2ccc3c(c2)OCO3)c1,EC50,[4],2.11 µM (active)
same,EC50,[5],0.361 µM (active)
CC1(C)CC(=O)C=C(Nc2ccc(Br)cn2)C1,EC50,[4],> 120 µM (not active)
same,EC50,[5],> 120 µM (not active)
same,EC50,[6],> 120 µM (not active)
CCOC(=O)c1ccc(Nc2nc(C)nc3c2nnn3Cc2ccccc2)cc1,EC50,[1],13.4 µM (active)
same,EC50,Streptokinase A,> 150 µM (not active)
same,EC50,Streptococcus,> 150 µM (not active)
CNC(=O)[C@@H]1O[C@@H](n2cnc3c(NCc4cccc(I)c4)ncnc32)[C@H](O)[C@@H]1O,AC50,Cytochrome P450 3A4,39.8 µM (inconclusive)
CCCCCCc1ccc(N2C[C@H](Cc3ccccc3)[C@@H](CC(=O)Nc3ccccc3)C2=O)cc1,AC50,INS1,14.2 µM (active)
COc1cc([C@@H]2c3cc4c(cc3[C@@H](O)[C@@H](CO)[C@@H]2CO)OCO4)cc(OC)c1O[Si](C)(C)C(C)(C)C,EC50,[4],15.9 µM (active)
same,EC50,[5],39.1 µM (active)
same,EC50,[6],11.5 µM (active)
O=S(=O)(c1ccccc1)N1CCC2(CCN(c3ncccn3)CC2)CC1,AC50,Cytochrome P450 3A4,31.6 µM (inconclusive)
Cc1ccc(C)c(C(C)NC(=O)c2ccccc2Br)c1 (stereo not drawn),IC50,[2],> 47.1 µM (inactive)
same,EC50,[3],> 53 µM (inactive)
CCOc1ccc(CNC(=O)CCCn2nc(C)c3c(C)n(-c4ccc(C)cc4)nc3c2=O)cc1,EC50,[4],11.4 µM (active)
same,EC50,[5],> 120 µM (not active)
same,EC50,[6],32.2 µM (active)
O=C(NCC1OCCc2ccccc21)c1ccc(NC(=O)c2ccc(Cl)cc2)cc1 (stereo not drawn),EC50,[4],> 120 µM (not active)
same,EC50,[5],14.2 µM (active)
same,EC50,[6],12.5 µM (active)
O=c1c(-c2cc(F)cc(F)c2)nc2cncnc2n1Cc1ccc(F)cc1,AC50,Cytochrome P450 3A4,10 µM (inconclusive)
O=[N+]([O-])c1cc(C(F)(F)F)ccc1NCCCCNS(=O)(=O)c1ccc(Cl)cc1,AC50,INS1,6.5 µM (active)
CC/C(C)=C1\SC(N2CCN(c3cccc(C(F)(F)F)c3)CC2)=NC1=O,EC50,[4],19.9 µM (active)
same,EC50,[5],> 120 µM (not active)
same,EC50,[6],> 120 µM (not active)
Cc1ccc(C)c(NC(S)=NCCCN2CCOCC2)c1,IC50,[2],> 47.1 µM (inactive)
same,EC50,[3],> 53 µM (inactive)
CCn1c(C)nc2cc(C(=O)NN=Cc3ccc([N+](=O)[O-])cc3)ccc21,IC50,[2],> 47.1 µM (inactive)
same,EC50,[3],> 53 µM (inactive)
CCOc1ccc(NC(=S)N2CCc3cc(OC)c(OC)cc3C2COc2ccc3c(C)cc(=O)oc3c2)cc1 (stereo not drawn),EC50,[4],30.4 µM (active)
same,EC50,[5],39.9 µM (active)
same,EC50,[6],> 120 µM (not active)
Cc1ccc(NNC(=O)C2CCC2)cc1C,EC50,[1],> 150 µM (not active)
same,EC50,Streptokinase A,> 150 µM (not active)
same,EC50,Streptococcus,> 150 µM (not active)
Cc1ccc(C(=O)NCCSc2ccccc2)cc1S(=O)(=O)Nc1ccccc1,EC50,[4],29.3 µM (active)
same,EC50,[5],23.3 µM (active)
same,EC50,[6],> 120 µM (not active)
C/C(CCN1CCCc2nc(C)c(C)cc21)=N\OC[C@@H](C)[C@H](OCc1ccccc1)C(C)C,AC50,Cytochrome P450 3A4,3.16 µM (inconclusive)
CO[C@H]1COC(=O)C/C=C\[C@H](C)COC(=O)[C@@H](OCc2ccccc2)/C=C\[C@@H]1C,AC50,Cytochrome P450 3A4,3.98 µM (inconclusive)
O=C1CC(Nc2cc(O)nc(O)n2)C(=O)N1c1ccccc1Cl (stereo not drawn),IC50,[2],> 47.1 µM (inactive)
same,EC50,[3],> 53 µM (inactive)
CCC(C)Nc1nc(N)c([N+](=O)[O-])c(Nc2cc(OC)ccc2OC)n1 (stereo not drawn),EC50,[4],10.7 µM (active)
same,EC50,[1],2.35 µM (active)
same,EC50,[5],12.8 µM (active)
same,EC50,[6],13.3 µM (active)
same,EC50,Streptokinase A,> 150 µM (not active)
same,EC50,Streptococcus,11.9 µM (active)
N=c1nc(N)nc2n1NC(c1ccc(F)cc1)=CS2,EC50,[4],> 120 µM (not active)
same,EC50,[5],> 120 µM (not active)
same,EC50,[6],13.7 µM (active)
O[Si@](CCCN1CCCCC1)(c1ccc(F)cc1)C1CCCCC1,AC50,Cytochrome P450 3A4,3.98 µM (inconclusive)
Cc1c(C)n(C(=O)CN2CCC(C)CC2)c2ccccc12,AC50,Cytochrome P450 3A4,17.8 µM (inconclusive)
C[C@H](NC(=O)[C@@H]1Cc2ccccc2CN1)C(=O)NC1CCCCC1,IC50,[2],> 47.1 µM (inactive)
same,EC50,[3],> 53 µM (inactive)
CC(NC(=O)COC(=O)C12CC3CC(CC(Br)(C3)C1)C2)c1ccccc1 (stereo not drawn),IC50,[2],> 47.1 µM (inactive)
same,EC50,[3],> 53 µM (inactive)
O=C1C=C(c2ccc(F)cc2OCc2ccccc2)C[C@@H](c2ccc(Cl)cc2)C1,AC50,INS1,4.89 µM (active)
CNc1nc(NC)nc(NNC(=O)c2ccccc2)n1,IC50,[2],> 47.1 µM (inactive)
same,EC50,[3],> 53 µM (inactive)
C/C(=N\Nc1nc(C)cc(-c2ccccc2)n1)c1ccc(F)cc1,AC50,INS1,3.13 µM (active)
COc1cccc(/C=N/NC(=O)c2c(-c3ccccc3)noc2C)c1O,AC50,INS1,2.5 µM (active)
C/C(=N\NC(=O)c1ccc(NS(=O)(=O)c2cccs2)cc1)c1ccccc1,IC50,[2],> 47.1 µM (inactive)
same,EC50,[3],> 53 µM (inactive)
Cc1ccccc1NS(=O)(=O)c1ccc(C(=O)N(C)CC(=O)Nc2ccccc2Br)cc1,IC50,[2],> 47.1 µM (inactive)
same,EC50,[3],> 53 µM (inactive)
COc1ccc(C(=O)NCC(=O)N/N=C/c2ccc([N+](=O)[O-])s2)cc1OC,EC50,[7],0.504 µM (active)
same,EC50,[8],> 60 µM (not active)
same,AC50,INS1,8.94 µM (active)
